Measured values reported in PMC1977984 (British Journal of Cancer, 1992).
Read-outs that look alike come from different tables or passages of the source. Starred links: 1 amine or outer side, 2 acyl side, 3 side chain; linkers in the order of their positions; H or OH if unused. Positions of bridges follow the written chain, without caps; N, C: chain ends. Non-standard residues stand in square brackets, D forms with d. Residues, ends and D or L forms follow the SMILES beside them. Chains are numbered I, II in the order given. Actinocin(9to1) = Cc1c2oc3c(C)ccc(C(=O)[*:1])c3nc-2c(C(=O)[*:2])c(N)c1=O; NMeV = CN[C@H](C(=O)O)C(C)C; Sar = CNCC(=O)O

What was measured:
[1] = system: drug resistant variant of the Ridgway osteogenic sarcoma; set-up: method as in Merry et al., 1991; details: in vivo model; ref Merry et al., 1991; cited from earlier work
[2] = cited from earlier work
[3] = system: MCF-7 adrr cell line; assay: cells
Description: (§1) Br. J. Cancer (1992), 66, 833-839 ? […] Clinical effects and in vitro assessment in p-glycoprotein expressing cell lines N.S.A. Stuart', P. Philip', A.L. Harris', K. Tonkin', S. Houlbrook2, J. Kirk2, E.A. Lien3 & J. Carmichael' 'ICRF Clinical Oncology Unit, Churchill Hospital, Oxford OX3 7LJ; 2MRC Radiobiology Unit, Chilton, Didcot, Oxon; 3Department of Pharmacology and Toxicology, University of Bergen, Bergen, Norway. […] Cytotoxic drug resistance frequently affects a wide range of cytotoxic agents. It is commonly inherent, although it may also be acquired after initial response to cytotoxic drugs. Cell lines exposed in vitro to one cytotoxic drug may also become resistant to a range of structurally and functionally diverse agents. This multidrug resistant (MDR) phenotype is associ- ated with the presence of a 170 kd membrane glycoprotein, the P-glycoprotein (Pgp) (Juliano et al., 1976; Kartner et al., 1983; Riordan et al., 1985) which acts as an energy depen- dent efflux pump (Skovsgaard, 1978). […] Unfor- tunately many cause unacceptable toxicity at levels below those needed to modulate resistance and have therefore not been useful clinically (Ozols et al., 1987). Some encouraging results have however been reported in lymphoid malignan- cies. […] It is widely used in the treatment of breast cancer at doses of 20-40mgday-' and at such doses produces serum levels around 0.5 JiM (Adam et al., 1980; Fabian et al., 1980; Lien et al., 1989). […] Etoposide (VP16-213, Vepesid) is an epipodophyllotoxin derived cytotoxic drug which interferes with the action of the nuclear enzyme topoisomerase II producing lethal single and double stranded DNA breaks (Chen et al., 1984). It has activity in a number of solid tumours and resistance to it is part of the typical MDR phenotype (Endicott et al., 1989). […] The study therefore included patients with a range of relapsed and chemoresistant tumours. […] Patients had ECOG performance scores of 2 or better, had normal renal and hepatic function and had normal peripheral blood counts. […] Correspondence: N.S. Stuart. Received 13 March 1992; and in revised form 8 July 1992. 'PI Macmillan Press Ltd., 1992 Br. J. Cancer (1992), 66, 833-839 834 N.S.A. STUART et al. No formal compliance check was conducted but patients were asked specifically whether they had difficulties taking the correct number of tablets. Oral etoposide was given at a dose of 300mgday-' (150mg two times day-') for the first course. Patients who remained myelosuppressed on day 21 had the dose of etoposide reduced to 200 mg day-' for subse- quent courses. In those who had no significant myelosuppres- sion the dose of etoposide was increased to 400 mg day-'. […] Blood samples were centrifuged and the serum removed and stored at -20?C prior to measurement. […] The methods used have been published previously (Lien et al., 1989; 1987). […] The drugs were detected by being converted to fluorophors by subjecting the effluent of the column to ultra-violet light while passing through a quartz tube. The identity of the analyses was confirmed by liquid chromatography/mass spec- trometry using an on-line mass spectrometer connected to the analytical column (Lien et al., 1988). Serum levels in different patient populations were compared using the Mann-Whitney U-test. Cells and culture conditions Three pairs of cell lines were assessed. Each comprised a wild-type parental cell line and a P-glycoprotein expressing daughter line. The wild-type MCF-7 cell line was derived from a human breast cancer (Soule et al., 1973) while the CHO-KI cell line was derived from Chinese hamster ovaries (CHO).

[4] = system: MCF-7 wt cell line; assay: cells
Description: as §1

[5] = system: S1 cell line (SW-1573); assay: cells; details: for Enhancement: S1, IC50 etoposide alone divided by IC50 with MNTC tamoxifen
Description: as §1

[6] = Description: as §1
[7] = system: CHO-KI adrr cell line; details: for Enhancement: CHO-KI adrr, IC50 etoposide alone divided by IC50 with MNTC tamoxifen
Description: as §1

[8] = system: CHO-KI cell line; details: IC50 etoposide alone divided by IC50 with MNTC tamoxifen
Description: as §1

[9] = system: S1/1.1 cell line; details: for Enhancement: S1/1.1, IC50 etoposide alone divided by IC50 with MNTC tamoxifen
Description: as §1

[10] = system: CHO-KI cell line; set-up: method as in Chatterjee et al., 1990b; details: parental CHO-KI line; ref Chatterjee et al., 1990b; cited from earlier work
[11] = system: CHO-KI adrr cell line; set-up: method as in Chatterjee et al., 1990b; details: dox resistant CHO-KI adrr line; ref Chatterjee et al., 1990b; cited from earlier work
[12] = system: P388/ADR murine leukaemia line; set-up: method as in Ramu et al., 1984; details: ref Ramu et al., 1984; cited from earlier work
[13] = system: MCF-7 adrr cell line; set-up: method as in Foster et al., 1988; details: ref Foster et al., 1988; cited from earlier work
[14] = system: multidrug resistance in vitro; set-up: method as in earlier work; details: ref Chatterjee et al., 1990b; Foster et al., 1988; Ramu et al., 1984; cited from earlier work
[15] = system: Chinese hamster lung (DC3F/ADX) and breast cancer (MCF-7 adrr) cell lines; set-up: method as in Politi et al., 1990; details: multidrug resistant mutants; ref Politi et al., 1990; cited from earlier work
[16] = system: human BRO melanoma cells; set-up: method as in Lincke et al., 1990; details: parental BRO cell line; ref Lincke et al., 1990; read-out: IC50 for etoposide; cited from earlier work
[17] = Homo sapiens, MCF7, 96 h, read-out: IC50 etoposide

Which “Resistance of the drug resistant variant” value [1] does the source give for `CC[C@]1(O)C[C@H]2CN(CCc3c([nH]c4ccccc34)[C@@](C(=O)OC)(c3cc4c(cc3OC)N(C=O)[C@H]3[C@@](O)(C(=O)OC)[C@H](OC(C)=O)[C@]5(CC)C=CCN6CC[C@]43[C@@H]65)C2)C1` [vincristine] here?
The value was 3.5 fold.

Which “Levels lower than those of the parent compound” value ([2]; in vivo) does the source give for `CC/C(=C(\c1ccccc1)c1ccc(OCCN)cc1)c1ccccc1` [didesmethyltamoxifen] here?
Its value is 60-85%.

For `CC/C(=C(\c1ccccc1)c1ccc(OCCN(C)C)cc1)c1ccccc1` [tamoxifen], which Enhancement ([3]; MCF-7 adrr, IC50 etoposide alone divided by IC50 with MNTC tamoxifen) is on record?
Its Enhancement is 0.7.

And the Enhancement ([4]; MCF-7 wt, IC50 etoposide alone divided by IC50 with MNTC tamoxifen)?
The Enhancement was 1.2.

And the Enhancement [5]?
Its Enhancement is 0.9.

What about the Enhancement ([5]; listed as Tamoxifen) of the same compound?
The Enhancement was “no significant effect”.

And the “Neurological symptoms: Severe/v. severe (number of patients)” value ([6]; tamoxifen 480 mg day-1, total 10 patients)?
The value was 0.

And the “Neurological symptoms: Severe/v. severe (number of patients)” value ([6]; tamoxifen 720 mg day-1, total 16 patients)?
The value was 1 (6%).

And the Enhancement [7]?
The Enhancement was 0.85.

And the Enhancement ([7]; listed as Tamoxifen)?
Its Enhancement is “no significant effect”.

And the Enhancement [8]?
The Enhancement was 1.0.

And the Enhancement ([8]; listed as Tamoxifen)?
Its Enhancement is “no significant effect”.

What about the Enhancement [9] of the same compound?
The Enhancement was 0.9.

What about the Enhancement ([9]; listed as Tamoxifen) of the same compound?
The Enhancement was “no significant effect”.

What about the “Enhancement of dox cytotoxicity” value [10] of the same compound?
The value was 4.8 fold.

What about the “Enhancement of dox cytotoxicity” value [11] of the same compound?
Its value is 16 fold.

What about the “Reversal of adriamycin resistance” value [12] of the same compound?
The value was “partially reversed the resistance”.

What about the “Reversal of adriamycin and vinblastine resistance” value [13] of the same compound?
Its value is “partial reversal”.

And the “Levels sufficient to modulate multidrug resistance in vitro” value [14]?
The value was 3-10 JAM.

What about the Serum levels ([2]; after 9 days on 260 mg of tamoxifen twice a day, ref Trump et al., 1991) of the same compound?
Its Serum levels is 6.1 µM.

What about the Serum levels ([2]; continuing tamoxifen 480 mg day-1 indefinitely, ref Stuart et al., 1991) of the same compound?
Its Serum levels is “around 4 microM”.

What about the “Steady state serum levels” value ([2]; standard dose tamoxifen 20-40 mg day-1, after 4 weeks, ref Adam et al., 1980, Fabian et al., 1980, Lien et al., 1989) of the same compound?
The value was 0.25 to 1.0 µM.

And the “Serum levels, plateau” value ([2]; tamoxifen 160 mg three times a day, after 10 days, ref Stuart et al., 1991)?
Its value is “around 4 microM”.

What about the Serum levels ([2]; tamoxifen doses of 20-40 mg day-1 in breast cancer, ref Adam et al., 1980, Fabian et al., Lien et al., 1989) of the same compound?
The Serum levels was “around 0.5 microM”.

With `Cc1c2oc3c(C)ccc(C(=O)N[C@@H]4C(=O)N[C@H](C(C)C)C(=O)N5CCC[C@H]5C(=O)N(C)CC(=O)N(C)[C@@H](C(C)C)C(=O)O[C@@H]4C)c3nc-2c(C(=O)N[C@@H]2C(=O)N[C@H](C(C)C)C(=O)N3CCC[C@H]3C(=O)N(C)CC(=O)N(C)[C@@H](C(C)C)C(=O)O[C@@H]2C)c(N)c1=O` [actinomycin- D, actinomycin-D] (I: T[dV]P[Sar][NMeV] / II: T[dV]P[Sar][NMeV]; ester I:1-I:C, II:1-II:C; linker I:N-II:N via Actinocin(9to1)) as the compound, how does the “Resistance of the drug resistant variant” value [1] read?
Its value is 1.5 fold.

Which “Effect on etoposide resistance” value [15] does the source give for `COc1ccc(CCN(C)CCCC(C#N)(c2ccc(OC)c(OC)c2)C(C)C)cc1OC` (stereo not drawn) [verapamil] here?
The value was 3-4 fold.

And the “Enhancement (reversal of resistance to vincristine)” value [15]?
The value was 11-125 fold.

What does the source list for `COc1cc([C@@H]2c3cc4c(cc3[C@@H](O[C@@H]3O[C@@H]5CO[C@@H](C)O[C@H]5[C@H](O)[C@H]3O)[C@H]3COC(=O)[C@H]23)OCO4)cc(OC)c1O` [etoposide]?
IC50 [3, 17]: 60000 nM; Resistance to etoposide in comparison to the MCF-7 wild type cell line ([3]; MCF-7 adrr versus MCF-7 wt): 60 fold; IC50 [4, 17]: 950 nM; IC50 ([5]; Homo sapiens, SW1573, 96 h, read-out: IC50 etoposide): 3000 nM; Thrombocytopenia ([6]; human, in vivo, po): No significant thrombocytopenia; More resistant than its parental line ([7]; CHO-KI adrr versus CHO-KI): 5 fold; More sensitive than the parental line ([9]; S1/1.1 versus S1, P<0.01): 2 fold; Resistance of the drug resistant variant [1]: 5 fold; IC50 [16]: 16 nM
